Data as given in ChEMBL document CHEMBL3351731, “Synthesis and cytotoxicity evaluation of 4-amino-4-dehydroxylarctigenin derivatives in glucose-starved A549 tumor cells” (Bioorg Med Chem Lett, 2015).

How the values were obtained:
[1] = tested on: A549; assay: Cytotoxicity against human A549 cells after 4 days under normal conditions by MTT assay; type: cell-based; conditions: A549, 96 h
[2] = tested on: A549; assay: Cytotoxicity against human A549 cells after 4 days under glucose-starved conditions by MTT assay; type: functional, cell-based; conditions: A549, 96 h

Structure (SMILES)	IC50 [1]	IC50 [2]
COc1cc(C[C@H]2C(=O)OC[C@@H]2Cc2ccc(OC)c(OC)c2)ccc1O [ARCTIGENIN]	> 50 µM	6.57 µM
COc1cc(C[C@H]2C(=O)OC[C@@H]2Cc2ccc(OC)c(OC)c2)ccc1NC(=O)c1ccccc1	> 50 µM	> 50 µM
COc1cc(C[C@H]2C(=O)OC[C@@H]2Cc2ccc(OC)c(OC)c2)ccc1NCc1ccccc1	> 50 µM	> 50 µM
COc1cc(C[C@H]2C(=O)OC[C@@H]2Cc2ccc(OC)c(OC)c2)ccc1Nc1ccc([N+](=O)[O-])cc1	> 50 µM	22.1 µM
COc1cc(C[C@H]2C(=O)OC[C@@H]2Cc2ccc(OC)c(OC)c2)ccc1Nc1ccc(F)cc1	> 50 µM	> 50 µM
COc1cc(C[C@H]2C(=O)OC[C@@H]2Cc2ccc(OC)c(OC)c2)ccc1Nc1ccccc1	> 50 µM	> 50 µM
COc1ccc(Nc2ccc(C[C@H]3C(=O)OC[C@@H]3Cc3ccc(OC)c(OC)c3)cc2OC)cc1	> 50 µM	> 50 µM
COc1cc(C[C@H]2C(=O)OC[C@@H]2Cc2ccc(OC)c(OC)c2)ccc1NC(=O)Cc1ccccc1	> 50 µM	> 50 µM
CCC(=O)Nc1ccc(C[C@H]2C(=O)OC[C@@H]2Cc2ccc(OC)c(OC)c2)cc1OC	> 50 µM	> 50 µM
COc1cc(C[C@H]2C(=O)OC[C@@H]2Cc2ccc(OC)c(OC)c2)ccc1NC(C)=O	> 50 µM	> 50 µM
COc1cc(C[C@H]2C(=O)OC[C@@H]2Cc2ccc(OC)c(OC)c2)ccc1N	> 50 µM	2.85 µM
COc1cccc(C[C@H]2C(=O)OC[C@@H]2Cc2ccc(OC)c(OC)c2)c1	> 50 µM	> 50 µM
